According to US20160222021A1, “ARYL ETHER-BASE KINASE INHIBITORS” (BRISTOL-MYERS SQUIBB COMPANY, priority 2013, published 2016):

biological target: T1, GST-Xa-hAAK1 (Homo sapiens, UniProt Q2M2I8); experiment: AAK1 Kinase Assay; assay type: biochemical; settings: ATP 22 μM; IC50 ranges
T1 construct: made in house
Experimental: The assays were performed in U-bottom 384-well plates. The final assay volume was 30 μl prepared from 15 μl additions of enzyme and substrates (fluoresceinated peptide (5-FAM)-Aha-[…]-NH2 and ATP) and test compounds in assay buffer (10 mM Tris-HCL pH 7.4, 10 mM MgCl2, 0.01% Tween-20 and 1.0 mM DTT). The reactions were initiated by the combination of bacterially expressed, GST-Xa-hAAK1 with substrates and test compounds. The reactions were incubated at room temperature for 3 hours and terminated by adding 60 μl of 35 mM EDTA buffer to each sample. The reactions were analyzed on the Caliper LabChip 3000 (Caliper, Hopkinton, Mass.) by electrophoretic separation of the fluorescent substrate and phosphorylated product. […] The final concentration of reagents in the assays are ATP, 22 μM; (5-FAM)-Aha-[…]-NH2, 1.5 μM; GST-Xa-hAAK1, 3.5 nM; and DMSO, 1.6%. Dose response curves were generated to determine the concentration required inhibiting 50% of kinase activity (IC50). Compounds were dissolved at 10 mM in dimethylsulfoxide (DMSO) and evaluated at eleven concentrations. IC50 values were derived by non-linear regression analysis.

T1 sequence (Q2M2I8 whole entry): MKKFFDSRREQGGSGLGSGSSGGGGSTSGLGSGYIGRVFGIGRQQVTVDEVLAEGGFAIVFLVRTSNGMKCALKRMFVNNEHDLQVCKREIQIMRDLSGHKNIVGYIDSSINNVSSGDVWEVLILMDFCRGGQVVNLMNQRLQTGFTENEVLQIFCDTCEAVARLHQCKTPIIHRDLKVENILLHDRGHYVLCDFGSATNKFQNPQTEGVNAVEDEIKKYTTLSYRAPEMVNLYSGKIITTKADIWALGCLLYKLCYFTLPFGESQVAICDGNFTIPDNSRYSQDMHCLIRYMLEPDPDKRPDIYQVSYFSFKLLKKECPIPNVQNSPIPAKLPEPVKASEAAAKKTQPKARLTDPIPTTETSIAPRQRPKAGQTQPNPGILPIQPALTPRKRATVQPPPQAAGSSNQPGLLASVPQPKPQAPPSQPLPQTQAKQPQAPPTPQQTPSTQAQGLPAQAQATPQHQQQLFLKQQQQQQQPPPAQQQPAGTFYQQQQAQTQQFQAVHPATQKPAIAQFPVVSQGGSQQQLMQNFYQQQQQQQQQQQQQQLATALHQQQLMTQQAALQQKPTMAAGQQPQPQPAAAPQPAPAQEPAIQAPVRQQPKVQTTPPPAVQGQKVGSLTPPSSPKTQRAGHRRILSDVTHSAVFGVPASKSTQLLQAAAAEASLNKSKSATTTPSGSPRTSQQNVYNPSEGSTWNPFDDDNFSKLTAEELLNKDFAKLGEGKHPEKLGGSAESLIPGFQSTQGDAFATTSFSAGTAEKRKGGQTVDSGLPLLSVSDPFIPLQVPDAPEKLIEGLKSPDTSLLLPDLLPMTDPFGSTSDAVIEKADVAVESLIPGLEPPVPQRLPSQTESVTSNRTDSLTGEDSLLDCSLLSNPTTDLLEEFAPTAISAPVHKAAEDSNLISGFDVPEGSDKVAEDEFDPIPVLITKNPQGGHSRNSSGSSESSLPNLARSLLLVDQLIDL

Compound | IC50 [nM]
CC(C)C[C@H](N)COc1ccc2c(c1)OC(C(C)C)c1cnccc1-2 (stereo partly drawn) [Example 51, (2S)-1-((5-isopropyl-5H-chromeno[3,4-c]pyridin-8-yl)oxy)-4-methylpentan-2-amine] | 10 to 100
CC(=O)Nc1cc2c(cn1)COc1cc(OC[C@H](CC(C)C)NC(C)=O)ccc1-2 [Example 100, (S)—N-(8-((2-acetamido-4-methylpentyl)oxy)-5H-chromeno[3,4-c]pyridin-2-yl)acetamide] | 100 to 1200
CC[C@@H](N)COc1ccc2c(c1)OCc1cnccc1-2 [Example 3, (R)-1-(5H-chromeno[3,4-c]pyridin-8-yloxy)butan-2-amine] | 100 to 1200
CC(C)C[C@H](N)COc1ccc2c(c1)OC1(COC1)c1cnccc1-2 [Example 19, (S)-4-methyl-1-(spiro[chromeno[3,4-c]pyridine-5,3′-oxetan]-8-yloxy)pentan-2-amine] | 100 to 1200
CCNc1cc2c(cn1)COc1cc(OC[C@@H](N)CC(C)C)ccc1-2 [Example 58, (S)-8-((2-amino-4-methylpentyl)oxy)-N-ethyl-5H-chromeno[3,4-c]pyridin-2-amine] | 10 to 100
CC(C)C[C@H](N)COc1ccc2c(c1)OC(C(F)(F)F)c1cnccc1-2 (single isomer, unassigned; diastereomer 2) [Example 53] | 10 to 100
CC(C)C[C@H](N)COc1ccc2c(c1)OCc1cnc(NC(=O)C(C)C)cc1-2 [Example 61, (S)—N-(8-((2-amino-4-methylpentyl)oxy)-5H-chromeno[3,4-c]pyridin-2-yl)isobutyramide] | 10 to 100
CC(C)C[C@H](N)COc1ccc2c(c1)OC(C(C)C)c1cnccc1-2 (stereo partly drawn) [Example 55, (2S)-1-((5-isopropyl-5H-chromeno[3,4-c]pyridin-8-yl)oxy)-4-methylpentan-2-amine] | 10 to 100
CC(=O)Nc1nccc2c1C(C)Oc1cc(OC[C@@H](N)CC(C)C)ccc1-2 (stereo partly drawn) [Example 47, N-(8-(((S)-2-amino-4-methylpentyl)oxy)-5-methyl-5H-chromeno[3,4-c]pyridin-4-yl)acetamide] | 100 to 1200
CC(C)C[C@@H](N)COc1ccc2c(c1)OC(C1CC1)c1cnccc1-2 (some centres unmarked) [Example 9] | 100 to 1200
CC(C)C[C@H](N)COc1ccc2c(c1)OC(C(F)(F)F)c1cnccc1-2 (stereo partly drawn) [Example 49, (2S)-4-methyl-1-((5-(trifluoromethyl)-5H-chromeno[3,4-c]pyridin-8-yl)oxy)pentan-2-amine] | 10 to 100
CC(C)C[C@@H](N)COc1ccc2c(c1)OC(C1CC1)c1cnccc1-2 (single isomer, unassigned) [Example 9a] | 100 to 1200
CC(C)C[C@H](N)COc1ccc2c(c1)OC(C1CC1)c1cnccc1-2 (single isomer, unassigned) [Example 8a] | 100 to 1200
Cc1cc2c(cn1)COc1cc(OC[C@@H](N)CC(C)C)ccc1-2 [Example 39, (S)-4-methyl-1-((2-methyl-5H-chromeno[3,4-c]pyridin-8-yl)oxy)pentan-2-amine] | 100 to 1200
CC(C)C[C@H](N)COc1cc2oc(=O)c3cnccc3c2cc1Br [Example 25, (S)-8-(2-amino-4-methylpentyloxy)-9-bromo-5H-chromeno[3,4-c]pyridin-5-one] | 1 to 10
COC(=O)Nc1cc2c(cn1)COc1cc(OC[C@@](C)(N)CC(C)C)c(Cl)cc1-2 [Example 83, (S)-methyl (8-((2-amino-2,4-dimethylpentyl)oxy)-9-chloro-5H-chromeno[3,4-c]pyridin-2-yl)carbamate] | 1 to 10

The next lines start with the values.

IC50 [nM] | Compound
1 to 10 | COC(=O)Nc1cc2c(cn1)COc1c-2ccc(OC[C@@H](N)CC(C)C)c1C#N [Example 84, (S)-methyl (8-((2-amino-4-methylpentyl)oxy)-7-cyano-5H-chromeno[3,4-c]pyridin-2-yl)carbamate]
1 to 10 | [2H]C1([2H])Oc2cc(OC[C@@](C)(N)CC(C)C)ccc2-c2cc(NC(=O)OC)ncc21 [Example 97, (S)-methyl (8-((2-amino-2,4-dimethylpentyl)oxy)-5,5-deutero-5H-chromeno[3,4-c]pyridin-2-yl)carbamate]
1 to 10 | CC(=O)Nc1cc2c(cn1)COc1cc(OC[C@@H](N)CC(C)C)cc(F)c1-2 [Example 62, (S)—N-(8-((2-amino-4-methylpentyl)oxy)-10-fluoro-5H-chromeno[3,4-c]pyridin-2-yl)acetamide]
< 1 | COC(=O)Nc1cc2c(cn1)COc1c-2ccc(OC[C@@](C)(N)CC(C)C)c1C#N [Example 80, (S)-methyl (8-((2-amino-2,4-dimethylpentyl)oxy)-7-cyano-5H-chromeno[3,4-c]pyridin-2-yl)carbamate]
< 1 | COC(=O)Nc1cc2c(cn1)COc1c-2ccc(OCC(C)(N)CC(C)C)c1OC (racemic) [Example 69, methyl (8-((2-amino-2,4-dimethylpentyl)oxy)-7-methoxy-5H-chromeno[3,4-c]pyridin-2-yl)carbamate]
1 to 10 | CC(C)C[C@](C)(N)COc1cc(F)c2c(c1)OCc1cnc(N)cc1-2 [Example 99, (S)-8-((2-amino-2,4-dimethylpentyl)oxy)-10-fluoro-5H-chromeno[3,4-c]pyridin-2-amine]
< 1 | CC(=O)Nc1cc2c(cn1)COc1c-2ccc(OC[C@@](C)(N)CC(C)C)c1Cl [Example 91, (S)—N-(8-((2-amino-2,4-dimethylpentyl)oxy)-7-chloro-5H-chromeno[3,4-c]pyridin-2-yl)acetamide]
1 to 10 | CC(C)C[C@H](N)COc1cc2c(cc1Cl)-c1cc(N)ncc1CO2 [Example 71, (S)-8-((2-amino-4-methylpentyl)oxy)-9-chloro-5H-chromeno[3,4-c]pyridin-2-amine]
< 1 | [2H]C([2H])(Oc1ccc2c(c1C#N)OCc1cnc(NC(=O)OC)cc1-2)C(C)(N)CC(C)C (racemic) [Example 94, methyl (8-((2-amino-1,1-deutero-2,4-dimethylpentyl)oxy)-7-cyano-5H-chromeno[3,4-c]pyridin-2-yl)carbamate]
< 1 | COc1c(OC[C@@](C)(N)CC(C)C)ccc2c1OCc1cnc(NC(C)=O)cc1-2 [Example 85, (S)—N-(8-((2-amino-2,4-dimethylpentyl)oxy)-7-methoxy-5H-chromeno[3,4-c]pyridin-2-yl)acetamide]
1 to 10 | CC(=O)Nc1cc2c(cn1)COc1cc(OC[C@@](C)(N)CC(C)C)cc(F)c1-2 [Example 98, (S)—N-(8-((2-amino-2,4-dimethylpentyl)oxy)-10-fluoro-5H-chromeno[3,4-c]pyridin-2-yl)acetamide]
1 to 10 | CC(C)CC(C)(N)COc1ccc2c(c1)OCc1cnc(N)cc1-2 (racemic) [Example 68, 8-((2-amino-2,4-dimethylpentyl)oxy)-5H-chromeno[3,4-c]pyridin-2-amine]
< 1 | CC(=O)Nc1cc2c(cn1)COc1c-2ccc(OC[C@@](C)(N)CC(C)C)c1OC(F)F [Example 87, (S)—N-(8-((2-amino-2,4-dimethylpentyl)oxy)-7-(difluoromethoxy)-5H-chromeno[3,4-c]pyridin-2-yl)acetamide]
< 1 | COC(=O)Nc1cc2c(cn1)COc1c-2ccc(OCC(C)(N)CC(C)C)c1C#N (racemic) [Example 79, methyl (8-((2-amino-2,4-dimethylpentyl)oxy)-7-cyano-5H-chromeno[3,4-c]pyridin-2-yl)carbamate]
1 to 10 | [2H]C([2H])(Oc1ccc2c(c1)OCc1cnc(NC(C)=O)cc1-2)C(C)(N)CC(C)C (racemic) [Example 78, N-(8-((2-amino-1,1-deutero-2,4-dimethylpentyl)oxy)-5H-chromeno[3,4-c]pyridin-2-yl)acetamide]

same assay, conditions: ATP 22 μM; numeric values

IC50 [nM] | Compound
1200 | CC(=O)Nc1nccc2c1C(C1CC1)Oc1cc(OC[C@@H](N)CC(C)C)ccc1-2 (stereo partly drawn) [Example 48, N-(8-(((S)-2-amino-4-methylpentyl)oxy)-5-cyclopropyl-5H-chromeno[3,4-c]pyridin-4-yl)acetamide]
305 | CNc1nccc2c1COc1cc(OC[C@@H](N)CC(C)C)ccc1-2 [Example 54, (S)-8-((2-amino-4-methylpentyl)oxy)-N-methyl-5H-chromeno[3,4-c]pyridin-4-amine]
2.1 | COC(=O)Nc1cc2c(cn1)COc1cc(OC[C@@](C)(N)CC(C)C)c(F)cc1-2 [Example 95, (S)-methyl (8-((2-amino-2,4-dimethylpentyl)oxy)-9-fluoro-5H-chromeno[3,4-c]pyridin-2-yl)carbamate]
556 | Cc1cc2c(cn1)c(=O)oc1cc(OC[C@@](C)(N)CC(C)C)ccc12 [Example 102, (S)-8-((2-amino-2,4-dimethylpentyl)oxy)-2-methyl-5H-chromeno[3,4-c]pyridin-5-one]
2.3 | [2H]C([2H])(Oc1ccc2c(c1)OCc1cnc(NC(=O)OC)cc1-2)C(C)(N)CC(C)C (racemic) [Example 75, methyl (8-((2-amino-1,1-deutero-2,4-dimethylpentyl)oxy)-5H-chromeno[3,4-c]pyridin-2-yl)carbamate]
0.87 | CC(=O)Nc1cc2c(cn1)COc1cc(OC[C@@](C)(N)CC(C)C)ccc1-2 [Example 45, (S)—N-(8-((2-amino-2,4-dimethylpentyl)oxy)-5H-chromeno[3,4-c]pyridin-2-yl)acetamide]
0.39 | COC(=O)Nc1cc2c(cn1)COc1c-2ccc(OC[C@@](C)(N)CC(C)C)c1OC [Example 86, (S)-methyl (8-((2-amino-2,4-dimethylpentyl)oxy)-7-methoxy-5H-chromeno[3,4-c]pyridin-2-yl)carbamate]
